Assay results from the NIST ThermoML archive (doi:10.1016/j.jct.2017.02.009).
± gives the expanded uncertainty stated by the source.

Columns and labels:
[1] = xn = mol fraction of the nth substance listed; conditions: 100 kPa, Liquid, x1 = 1; for mass density: Vibrating tube method
[2] = 100 kPa, Liquid; for mass density: Vibrating tube method; for viscosity: Capillary tube (Ostwald / Ubbelohde) method

Row | Compound | mass density ([1]; 293.15 K) [kg/m3] | viscosity ([1]; 298.15 K, Capillary tube (Ostwald / Ubbelohde) method) [mPa·s] | mass density ([1]; 298.15 K) [kg/m3] | mass density ([1]; 303.15 K) [kg/m3] | mass density ([1]; 313.15 K) [kg/m3] | mass density ([2]; 293.15 K) [kg/m3] | viscosity ([2]; 298.15 K) [mPa·s] | mass density ([2]; 298.15 K) [kg/m3] | mass density ([2]; 303.15 K) [kg/m3] | mass density ([2]; 313.15 K) [kg/m3]
1 | C[S+](C)[O-] [dimethyl sulfoxide] + O=C1CCCO1 | 1100.2 ± 1 | 1.985 ± 0.025 | 1095.2 ± 1 | 1090.2 ± 1 | 1080.2 ± 1 | – | – | – | – | –
2 | C[S+](C)[O-] [dimethyl sulfoxide] | – | – | – | – | – | 1100.2 ± 1 | 1.985 ± 0.025 | 1095.2 ± 1 | 1090.2 ± 1 | 1080.2 ± 1
3 | O=C1CCCO1 [γ-butyrolactone] | – | – | – | – | – | 1129.4 ± 1 | 1.72 ± 0.024 | 1124.5 ± 1 | 1119.6 ± 1 | 1109.8 ± 1
